Assays:
[1] = tested on: Myzus persicae (Green Peach Aphid); test: Activity against Myzus persicae on cabbage plants, feeding/residual contact activity (Example B5); type: in vivo; details: 144 h, infested cabbage plants, spray chamber, mortality 6 days after treatment
Description: Activity Against Myzus persicae (Green Peach Aphid) (Mixed Population, Feeding/Residual Contact Activity, Plant Damage Evaluation)
Cabbage plants infested with a mixed population of Myzus persicae are treated with diluted test solutions of the compounds in a spray chamber. 6 days after treatment, samples are checked for mortality and for plant damage (phytotoxicity), visual assessment being made using a 0-100% rating scale (100%=total damage to plant; 0%=no damage to plant).

[2] = tested on: Myzus persicae (Green Peach Aphid); test: Activity against Myzus persicae, mixed population, systemic/feeding activity, curative (Example B2); type: in vivo; details: 144 h, roots of infested pea seedlings in test solution, mortality 6 days after introduction
From the text: Activity Against Myzus persicae (Green Peach Aphid) (Mixed Population, Systemic/Feeding Activity, Curative)
Roots of pea seedlings, infested with an aphid population of mixed ages, are placed directly in the test solutions. 6 days after introduction, samples are checked for mortality and special effects on the plant.

[3] = tested on: Tetranychus urticae (Two-Spotted Spider Mite); test: Activity against Tetranychus urticae, mixed population, feeding/residual contact activity, preventive (Example B4); type: in vivo; details: foliar, 192 h, bean leaf discs sprayed, egg, larval and adult mortality 8 days later
From the text: Activity Against Tetranychus urticae (Two-Spotted Spider Mite) (Mixed Population, Feeding/Residual Contact Activity, Preventive)
Bean leaf discs on agar in 24-well microtiter plates are sprayed with test solutions. After drying, the leaf discs are infested with mite populations of mixed ages. 8 days later, discs are checked for egg mortality, larval mortality, and adult mortality.

[4] = tested on: Myzus persicae (Green Peach Aphid); test: Activity against Myzus persicae, mixed population, feeding/residual contact activity, preventive (Example B1); type: in vivo; set-up: concentration or dose not given beside the values; details: foliar, 144 h, sunflower leaf discs sprayed, mortality checked after 6 days
Description: Activity Against Myzus persicae (Green Peach Aphid) (Mixed Population, Feeding/Residual Contact Activity, Preventive)
Sunflower leaf discs are placed on agar in a 24-well microtiter plate and sprayed with test solutions. After drying, the leaf discs are infested with an aphid population of mixed ages. After an incubation period of 6 days, samples are checked for mortality and special effects (e.g. phytotoxicity).

[5] = tested on: Aphis craccivora (Cowpea Aphid); test: Activity against Aphis craccivora, mixed population, contact/feeding (Example B9); type: in vivo; details: 200 ppm; infested pea seedlings, spray chamber; mortality 6 days after treatment
Description: Activity Against Aphis craccivora (Cowpea Aphid) (Mixed Population, Contact/Feeding)
Pea seedlings, infested with an aphid population of mixed ages, are treated (2 replicates) with diluted test solutions in a spray chamber. 6 days after treatment, samples are checked for mortality.

SMILES	pest or weed control at 200 ppm [1] [%]	pest or weed control at 400 ppm [2] [%]	pest or weed control at 400 ppm [3] [%]	pest or weed control [4] [%]	melting point [°C]	activity [5]
C#Cc1cc(C)cc(C)c1C1C(=O)N(OC2CCCO2)C2(CCN(OC)CC2)C1=O (stereo not shown) [Compound P2.8]	≥ 80	> 80	> 80	> 80		
CC#Cc1cc(C)c(C2=C(O)C3(CCN(OC)CC3)N(C)C2=O)c(C)c1 [Compound P2.13, 3-(2,6-Dimethyl-4-prop-1-ynyl-phenyl)-4-hydroxy-8-methoxy-1-methyl-1,8-diaza-spiro[4.5]dec-3-en-2-one]	≥ 80					
C#Cc1ccc(C)cc1C1=C(OC(=O)OCC)C2(CCN(OC)CC2)NC1=O [Compound P1.10]	≥ 80					
CON1CCC2(CC1)NC(=O)C(c1cc(C(C)=O)ccc1C)C2=O (stereo not shown) [Compound P2.1]					218 to 220	
C#Cc1cc(C)cc(C)c1C1C(=O)NC2(CCN(OC)CC2)C1=O (stereo not shown) [Compound P2.6]	≥ 80	> 80	> 80	> 80		
C#Cc1cc(C)cc(C)c1C1=C(OC(=O)OCC)C2(CCN(OC)CC2)N(OC2CCCO2)C1=O (stereo not shown) [Compound P1.9]	≥ 80	> 80	> 80	> 80		
C=Cc1cc(C)cc(C)c1C1=C(O)C2(CCN(OC)CC2)N(OC2CCCO2)C1=O (stereo not shown) [Compound P2.5, 3-(2,4-Dimethyl-6-vinyl-phenyl)-4-hydroxy-8-methoxy-1-(tetrahydro-furan-2-yloxy)-1,8-diaza-spiro[4.5]dec-3-en-2-one]	≥ 80					
C#Cc1ccc(C)cc1C1C(=O)N(OC)C2(CCN(OC)CC2)C1=O (stereo not shown) [Compound P2.10]	≥ 80					
C#Cc1cc(C)cc(C)c1C1C(=O)N(C)C2(CCN(OC)CC2)C1=O (stereo not shown) [Compound P2.7]	≥ 80		> 80	> 80		
C#Cc1cc(C)c(C2C(=O)NC3(CCN(OC)CC3)C2=O)c(C)c1 (stereo not shown) [Compound P2.11]	≥ 80	> 80		> 80		
C=Cc1cc(C)cc(C)c1C1=C(OC(=O)OCC)C2(CCN(OC)CC2)N(C)C1=O [Compound P1.4]	≥ 80		> 80	> 80		
C=Cc1cc(C)cc(C)c1C1=C(OC(=O)OCC)C2(CCN(OC)CC2)N(OC2CCCO2)C1=O (stereo not shown) [Compound P1.5, Carbonic acid 3-(2,4-dimethyl-6-vinyl-phenyl)-8-methoxy-2-oxo-1-(tetrahydro-furan-2-yloxy)-1,8-diaza-spiro[4.5]dec-3-en-4-yl ester ethyl ester]	≥ 80		> 80	> 80		
C#Cc1cc(C)cc(C)c1C1=C(OC(=O)OCC)C2(CCN(OC)CC2)NC1=O [Compound P1.7]	≥ 80	> 80	> 80	> 80		
C#Cc1cc(C)cc(C)c1C1=C(OC(=O)OCC)C2(CCN(OC)CC2)N(C)C1=O [Compound P1.8]	≥ 80	> 80	> 80	> 80		
CCOC(=O)OC1=C(c2cc(C(C)=O)ccc2C)C(=O)NC12CCN(OC)CC2 [Compound P1.2]					185 to 187	
C#Cc1ccc(C)cc1C1=C(OC(=O)OCC)C2(CCN(OC)CC2)N(OC)C1=O [Compound P1.11]	≥ 80		> 80	> 80		
C=Cc1cc(C)cc(C)c1C1=C(O)C2(CCN(OC)CC2)N(C)C1=O [Compound P2.4, 3-(2,4-Dimethyl-6-vinyl-phenyl)-4-hydroxy-8-methoxy-1-methyl-1,8-diaza-spiro[4.5]dec-3-en-2-one]	≥ 80					
C=Cc1cc(C)cc(C)c1C1=C(O)C2(CCN(OC)CC2)NC1=O [Compound P2.3, 3-(2,4-Dimethyl-6-vinyl-phenyl)-4-hydroxy-8-methoxy-1,8-diaza-spiro[4.5]dec-3-en-2-one]	≥ 80		> 80	> 80		
C=Cc1cc(C)c(C2=C(OC(=O)OCC)C3(CCN(OC)CC3)N(C)C2=O)c(C)c1 [Compound P1.6]	≥ 80					over 80%
C#Cc1cc(C)c(C2=C(O)C3(CCN(OC)CC3)N(C)C2=O)c(C)c1 [Compound P2.12, 3-(4-Ethynyl-2,6-dimethyl-phenyl)-4-hydroxy-8-methoxy-1-methyl-1,8-diaza-spiro[4.5]dec-3-en-2-one]	≥ 80	> 80		> 80		
C=Cc1cc(C)cc(C)c1C1=C(OC(=O)OCC)C2(CCN(OC)CC2)NC1=O [Compound P1.3]	≥ 80	> 80	> 80	> 80		
C#Cc1cc(C)c(C2=C(OC(=O)OCC)C3(CCN(OC)CC3)NC2=O)c(C)c1 [Compound P1.12]	≥ 80	> 80		> 80		
C#Cc1cc(C)c(C2=C(OC(=O)OCC)C3(CCN(OC)CC3)N(C)C2=O)c(C)c1 [Compound P1.13]	≥ 80	> 80		> 80		
CC#Cc1cc(C)c(C2=C(OC(=O)OCC)C3(CCN(OC)CC3)N(C)C2=O)c(C)c1 [Compound P1.14]	≥ 80	> 80	> 80			
COC(=O)c1ccc(C)c(C2C(=O)NC3(CCN(OC)CC3)C2=O)c1 (stereo not shown) [Compound P2.2]					245 to 247	

Reference: patent publication US20130210625A1, “SPIROHETEROCYCLIC PYRROLIDINE DERIVATIVES BASED PESTICIDES” (SYNGENTA CROP PROTECTION LLC, priority 2010, published 2013)
